In patent US5521319A, “Biotinylation reagent and method of use thereof” (priority 1993, dated 1996):
Converted amounts (≈) assume the structure as drawn.

Legend:
[1] = Solubility of biotinylation reagents at 20° C.; type: physicochemical; details: for Solubility in DMF / Solubility in methanol / Solubility in water / Solubility in dichloromethane: 20° C.
Source text: [table 1: the next 15 blocks are its lines as printed, fixed-width]

TSH [2] = assay: Immunological determination of TSH using streptavidin magnetic particles and photometric signal measurement
Source text: (§1) After dialysis against 25 mmol/l potassium phosphate/50 mmol/l sodium chloride pH 7.0, the product is lyophilized.

TSH [3] = assay: Electrochemiluminescence immunological determination of TSH with biotinylated antibody, ruthenium-labelled F(ab')2 and streptavidin magnetic particles
Source text: as §1

[4] = cited from earlier work; for Solubility in organic solvents: organic solvents with the exception of DMSO and DMF
[5] = electrochemiluminescence measurement, vs biotin-NHS

SMILES	Solubility in DMF [1] [µg/mL]	Solubility in methanol [1] [µg/mL]	Solubility in water ([1]; water) [µg/mL]	Solubility in dichloromethane ([1]; dichloromethane) [µg/mL]	Signal of biotinylated antibodies compared with spacer-free biotin-NHS (TSH [3]; [5])	Solubility in organic solvents [4]	Solubility in water and aqueous buffer solutions [4]	also measured
O=C(CCCC[C@@H]1SC[C@@H]2NC(=O)N[C@@H]21)NCCCCCC(=O)ON1C(=O)CCC1=O [NHS-LC-biotin]	20000 (≈ 44 mM)	20000 (≈ 44 mM)	2000 (≈ 4.4 mM)					
O=C(CCCCCCC(=O)ON1C(=O)CCC1=O)NCCOCCOCCNC(=O)CCCC[C@@H]1SC[C@@H]2NC(=O)N[C@@H]21 [biotin-DDS, biotinoyl-amino-3,6-dioxaoctanyl-aminocarbonyl-heptanoic acid-N-hydroxysuccinimide ester]	20000 (≈ 31.9 mM)	20000 (≈ 31.9 mM)	7000 (≈ 11.2 mM)	10000 (≈ 15.9 mM)	considerably higher signals			Solubility spectrum compared with known reagents ([1]; compared with biotinylation reagents of the state of the art): considerably broader solubility spectrum than known compounds; Solubility in strongly polar (water) and non-polar (dichloromethane) solvents ([1]; water, dichloromethane): good solubility; Photometric signal of labelled antibody compared with biotin-X-NHS (TSH [2]; magnetic particle test with antibody-POD conjugate, vs antibody biotinylated with biotin-X-NHS): significantly higher signals; Degree of biotinylation giving the signal optimum (TSH [2]; photometric measurement): signal optimum at a lower degree of biotinylation; Performance of conjugates produced with the reagent, better than with biotin-NHS (TSH [3]; electrochemiluminescence and other immunological tests with spherical solid phases, vs biotin-NHS): about 3.5 fold; Performance of conjugates produced with the reagent, better than with biotin-X-NHS (TSH [3]; electrochemiluminescence and other immunological tests with spherical solid phases, vs biotin-X-NHS): 1.3 fold; Signal yield of antibodies biotinylated via biotin-DDS, higher than via biotin-X-NHS (TSH [3]; electrochemiluminescence measurement, vs antibodies biotinylated via biotin-X-NHS): 25.7%
O=C1N[C@H]2[C@H](CS[C@H]2CCCCC(=O)ON2C(=O)CCC2=O)N1 [biotin-NHS, biotin-N-hydroxysuccinimide esters]						only moderately soluble	only moderate solubility	
O=C(CCCC[C@@H]1SC[C@@H]2NC(=O)N[C@@H]21)NCCCCCC(=O)ON1C(=O)CCC1=O [biotin-X-NHS, biotinoylaminocaproic acidN-hydroxysuccinimide ester]	10000 (≈ 22 mM)	10000 (≈ 22 mM)	10000 (≈ 22 mM)	< 1000	considerably higher signals	only moderately soluble	only moderate solubility	
O=C(CCCC[C@@H]1SC[C@@H]2NC(=O)N[C@@H]21)NCCCCCC(=O)ON1C(=O)CC(S(=O)(=O)O)C1=O (some centres unmarked) [sulfo-NHS-LC-biotin]								Solubility in an aqueous medium ([4]; aqueous medium): good solubility; Solubility in organic solvents in the required concentrations ([4]; organic solvents, in the required concentrations): not soluble
